Measurements taken from ChEMBL document CHEMBL1909046, “DrugMatrix in vitro pharmacology data”.

Legend:
[1] = molecular target: T1, Alpha-1B adrenergic receptor (Rattus norvegicus, UniProt P15823); experiment: DRUGMATRIX: Alpha-1B adrenergic receptor radioligand binding (ligand: prazosin); format: cell membranes, Wistar, Liver, Membrane; conditions: Not Active = under 50% inhibition at 10 µM
T1 sequence (P15823 whole entry): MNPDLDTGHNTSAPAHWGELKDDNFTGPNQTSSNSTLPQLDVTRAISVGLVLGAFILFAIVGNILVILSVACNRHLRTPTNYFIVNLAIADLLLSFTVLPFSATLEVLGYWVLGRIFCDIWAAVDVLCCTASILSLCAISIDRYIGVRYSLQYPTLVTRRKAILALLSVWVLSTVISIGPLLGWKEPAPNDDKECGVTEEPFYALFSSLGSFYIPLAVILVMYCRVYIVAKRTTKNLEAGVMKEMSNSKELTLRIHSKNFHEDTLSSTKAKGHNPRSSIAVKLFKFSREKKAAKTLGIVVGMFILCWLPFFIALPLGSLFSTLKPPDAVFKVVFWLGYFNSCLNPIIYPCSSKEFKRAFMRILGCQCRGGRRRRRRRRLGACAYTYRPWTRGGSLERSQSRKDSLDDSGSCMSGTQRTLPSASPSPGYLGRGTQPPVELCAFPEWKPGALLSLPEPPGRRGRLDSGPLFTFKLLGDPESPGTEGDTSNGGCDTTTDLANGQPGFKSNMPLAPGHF

Glycine receptor = Glycine receptor (Rattus norvegicus, UniProt P22771+P24524+P07727+P20781); format: cell membranes, Wistar, Spinal cord, Membrane; note: in other assays of this panel Not Active means under 50% inhibition at 10 µM
[2] = molecular target: T2, Cysteinyl leukotriene receptor 1 (Homo sapiens, UniProt Q9Y271); format: cell membranes, CHO-K1, Membrane; conditions: cho-k1; note: in other assays of this panel Not Active means under 50% inhibition at 10 µM
T2 sequence (Q9Y271 whole entry): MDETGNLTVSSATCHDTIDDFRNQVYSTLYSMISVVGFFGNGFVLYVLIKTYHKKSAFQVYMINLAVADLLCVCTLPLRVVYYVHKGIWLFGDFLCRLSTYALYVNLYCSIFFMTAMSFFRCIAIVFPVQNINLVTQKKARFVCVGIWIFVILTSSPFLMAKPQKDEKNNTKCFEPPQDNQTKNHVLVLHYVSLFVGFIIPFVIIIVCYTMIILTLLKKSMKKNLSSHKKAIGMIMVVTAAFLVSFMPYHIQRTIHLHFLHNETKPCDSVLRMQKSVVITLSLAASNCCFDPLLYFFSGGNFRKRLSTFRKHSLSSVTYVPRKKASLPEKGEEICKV

Melanocortin receptor 3 = Melanocortin receptor 3 (Homo sapiens, UniProt P41968); format: cell membranes, HEK293, Membrane; conditions: hek293; note: in other assays of this panel Not Active means under 50% inhibition at 10 µM
[3] = molecular target: Tyrosine-protein kinase Lck (Homo sapiens, UniProt P06239); experiment: DRUGMATRIX: Protein Tyrosine Kinase, LCK enzyme inhibition (substrate: Poly(Glu:Tyr)); format: cell-based, Insect cells; conditions: insect cells; Not Active = under 50% inhibition at 10 µM

Measured: IC50

Sequence of Tyrosine-protein kinase Lck (P06239 whole entry): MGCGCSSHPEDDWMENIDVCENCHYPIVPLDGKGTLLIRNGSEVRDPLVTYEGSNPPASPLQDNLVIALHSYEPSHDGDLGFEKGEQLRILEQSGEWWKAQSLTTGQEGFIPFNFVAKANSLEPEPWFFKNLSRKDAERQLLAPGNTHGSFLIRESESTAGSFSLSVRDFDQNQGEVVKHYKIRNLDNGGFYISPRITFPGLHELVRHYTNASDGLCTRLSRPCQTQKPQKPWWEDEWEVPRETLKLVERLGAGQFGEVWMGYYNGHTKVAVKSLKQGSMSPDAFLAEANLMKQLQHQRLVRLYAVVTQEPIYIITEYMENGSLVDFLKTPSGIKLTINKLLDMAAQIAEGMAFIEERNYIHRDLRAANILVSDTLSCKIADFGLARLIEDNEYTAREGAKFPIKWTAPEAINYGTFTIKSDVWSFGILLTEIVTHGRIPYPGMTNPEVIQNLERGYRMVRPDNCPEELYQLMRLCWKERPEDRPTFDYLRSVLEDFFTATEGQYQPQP
Sequence of Melanocortin receptor 3 (P41968 whole entry): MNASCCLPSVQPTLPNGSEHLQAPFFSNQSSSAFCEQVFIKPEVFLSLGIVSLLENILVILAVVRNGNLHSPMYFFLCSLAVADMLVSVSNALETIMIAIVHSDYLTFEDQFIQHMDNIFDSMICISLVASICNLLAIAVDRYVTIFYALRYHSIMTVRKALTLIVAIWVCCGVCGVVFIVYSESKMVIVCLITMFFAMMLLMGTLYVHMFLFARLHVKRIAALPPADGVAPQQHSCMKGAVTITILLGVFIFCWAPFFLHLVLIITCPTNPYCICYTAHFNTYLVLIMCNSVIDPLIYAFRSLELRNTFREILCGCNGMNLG

Nc1ncn([C@@H]2O[C@H](CO)[C@@H](O)[C@H]2O)c(=O)n1 [AZACITIDINE]
Not Active: all assays above

NCCCCCC(=O)O [AMINOCAPROIC ACID]
Not Active: all assays above

Cc1ccc(-c2cc(C(F)(F)F)nn2-c2ccc(S(N)(=O)=O)cc2)cc1 [CELECOXIB]
Not Active: all assays above

CC(O)CO (centres undefined) [PROPYLENE GLYCOL]
Not Active: all assays above

C[C@](N)(Cc1ccc(O)c(O)c1)C(=O)O [METHYLDOPA]
Not Active: all assays above

C[C@]12CC[C@@H]3c4ccc(O)cc4CC[C@H]3[C@@H]1CCC2=O [ESTRONE]
Not Active: all assays above

C[C@H]1c2cccc(O)c2C(=O)C2=C(O)[C@]3(O)C(=O)C(C(N)=O)=C(O)[C@@H](N(C)C)[C@@H]3[C@@H](O)[C@@H]21.O [DOXYCYCLINE]
Not Active: all assays above

Nc1nc(N)nc(-c2cc(Cl)ccc2Cl)n1.O=C(O)/C=C\C(=O)O [IRSOGLADINE MALEATE]
Not Active: all assays above

CCC1(c2ccc(N)cc2)CCC(=O)NC1=O (centres undefined) [AMINOGLUTETHIMIDE]
Not Active: all assays above

O=C(O)CCCc1ccc(N(CCCl)CCCl)cc1 [CHLORAMBUCIL]
Not Active: all assays above

C[C@]12CCC(=O)C=C1CC[C@@H]1[C@@H]2CC[C@@]2(C)[C@H]1CC[C@]2(C)O [METHYLTESTOSTERONE]
Not Active: all assays above

Nc1nc2c(ncn2COCCO)c(=O)[nH]1 [ACYCLOVIR]
Not Active: all assays above

CNCCCN1c2ccccc2CCc2ccccc21 [DESIPRAMINE]
Not Active: all assays above

Clc1cccc(Cl)c1NC1=NCCN1 [CLONIDINE]
not listed: [1]
Not Active: all other assays above
